# Results taken from patent US20220024882A1, “NOVEL TUMOR ANTIGEN BINDING AGENTS AND USES THEREOF” (ITM Isotopen Technologien München AG, priority 2018, published 2022).
# Values joined by “and” are separate entries in the source; they are usually repeats but may differ in a detail not shown here. Equal entries are not always repeated.
# Experiments:
# [1] = tested on: PC-3 PIP/flu tumor-bearing mice; assay: Biodistribution study in PC-3 PIP/flu tumor-bearing mice; format: in vivo, athymic nude Balb/c mice; settings: for Blood / Bone / Heart / Intestines / Kidneys / Liver / Lung / Muscle / Salivary glands / Spleen / Stomach / Tumor-to-blood / Tumor-to-kidney / Tumor-to-liver: PC-3 PIP/flu tumor-bearing mice; for PC-3 flu Tumor: PSMA-negative tumor xenograft; for PC-3 flu Tumor / PC-3 PIP Tumor: mice; for PC-3 PIP Tumor: PSMA-positive tumor xenograft
# Method: (§1) In vivo experiments were approved by the local veterinarian department and conducted in accordance with the Swiss law of animal protection. Mice were obtained from Charles River Laboratories, Sulzfeld, Germany, at the age of 5-6 weeks. Female, athymic nude Balb/c mice were subcutaneously inoculated with PSMA-positive PC-3 PIP cells (6×10^6 cells in 100 μL Hank's balanced salt solution (HBSS) with Ca^2+/Mg^2+) on the right shoulder and with PSMA-negative PC-3 flu cells (5×10^6 cells in 100 μL HBSS Ca^2+/Mg^2+) on the left shoulder. Two weeks later, the tumors reached a size of about 80-300 mm^3 suitable for the performance of the biodistribution studies.
# Biodistribution studies were performed 12-15 days after PC-3 PIP/flu tumor cell inoculation. […] The radioligands were injected in a lateral tail vein in a volume of 100-200 μL. Mice were euthanized at different time points after injection (p.i.) of the radioligands. Selected tissues and organs were collected, weighed and measured using a γ-counter. The results were decay-corrected and listed as a percentage of the injected activity per gram of tissue mass (% IA/g) (Table 3 and 4).
# Mice were obtained from Charles River Laboratories, Sulzfeld, Germany, at the age of 5-6 weeks. Female, athymic nude BALB/c mice were subcutaneously inoculated with PSMA-positive PC-3 PIP cells (6×10^6 cells in 100 μL Hank's balanced salt solution (HBSS)) on the right shoulder and with PSMA-negative PC-3 flu cells (5×10^6 cells in 100 μL HBSS) on the left shoulder. Two weeks later, the tumors reached a size of about 80-300 mm^3 suitable for the performance of the biodistribution and imaging studies.
# Biodistribution studies were performed 12-15 days after PC-3 PIP/flu tumor cell inoculation. ^177Lu-Ibu-sPSMA was diluted in 0.9% NaCl containing 0.05% bovine serum albumin (BSA) to prevent adhesion to the vial and syringe material. The radioligand was injected in a lateral tail vein in a volume of 100 μL. Mice were euthanized at different time points after injection (p.i.) of the radioligand. Selected tissues and organs were collected, weighed and measured using a γ-counter. The results were decay-corrected and listed as a percentage of the injected activity per gram of tissue mass (% IA/g) (Table 6, FIG. 18).
# [2] = Whole-body activity measurements, non-tumor bearing mice; format: in vivo; settings: 4 h after injection, 25 MBq, 1 nmol i.v.
# Method: All albumin-binding radioligands (molar activity: 25 MBq/nmol) were diluted in 0.9% NaCl containing 0.05% BSA and i.v. injected into non-tumor bearing mice (25 MBq, 1 nmol, 100 μL). The mice were measured in a dose calibrator at various time-points up to 56 h p.i. The radioligands were compared with previously obtained data from ^177Lu-PSMA-617.
# [3] = Whole-body activity measurements, tumor-bearing mice; format: in vivo, athymic nude Balb/c mice; settings: 4 h p.i., 30 MBq, 1 nmol i.v., activity right after injection = 100%
# Method: as §1, with “imaging” for “biodistribution”
# The single radioligands (specific activity: 30 MBq/nmol) were diluted in 0.9% NaCl containing 0.05% bovine serum albumin (BSA) and i.v. injected into PC-3 PIP/flu tumor bearing mice (30 MBq, 1 nmol, 100 μL) for SPECT/CT imaging purposes. The mice were measured in a dose calibrator at 4 h, 24 h, 48 h and 72 h p.i., respectively.
# [4] = tested on: PSMA-positive PC-3 PIP tumor-bearing mice; assay: In vivo therapy study; set-up: species or system athymic nude BALB/c mice; settings: for first mouse of group euthanized / median survival / TGDI5 (tumor growth delay index, 5-fold increase of tumor size): 1 nmol per mouse; for TGDI5 (tumor growth delay index, 5-fold increase of tumor size): controls = 1.0
# Method: Mice were obtained from Charles River Laboratories, Sulzfeld, Germany, at the age of 5-6 weeks. Female, athymic nude BALB/c mice were subcutaneously inoculated with PSMA-positive PC-3 PIP cells (4×10^6 cells in 100 μL Hank's balanced salt solution (HBSS)) on the right shoulder. Six days later, the tumors reached a size of about 30-160 mm^3 suitable for the performance of the in vivo therapy study. Mice were euthanized when a predefined endpoint criterion was reached or when the study was finalized at Day 84. Endpoint criteria were defined as (i) body weight loss of >15%, (ii) a tumor volume of >800 mm^3 (iii) a combination of body weight loss of >10% and a tumor volume of >700 mm^3 or (iv) signs of unease and pain or a combination thereof.
# Six days after subcutaneous inoculation of 4×10^6 PC-3 PIP tumor cells inoculation, three groups with statistically similar body weight and tumor volumes were intravenously injected. One group was injected with only the vehicle (saline containing 0.05% bovine serum albumin (BSA); Group A; n=6), and another two groups with ^177Lu-Ibu-DAB-PSMA (Group B: 2 MBq, 1 nmol (n=6) and Group C: 5 MBq, 1 nmol (n=6)) at Day 0 of the therapy study (Table 7). The monitoring of mice and the assessment of the therapy study was conducted as described by Eiber et al., J. Nucl. Med., 2017, 58 (Suppl. 2) 67S-76S). In short, the mice were monitored by measuring body weight and tumor size every second day over a period of 12 weeks. The relative body weight (RBW) was defined as [BWx/BW0], where BWx is the body weight in grams at a given Day x and BW0 is the body weight in grams at Day 0. The tumor dimensions were determined by measuring the longest tumor axis (L) and its perpendicular axis (W) with a digital caliper. The tumor volume (V) was calculated according to the equation [V=0.5×(LW^2)]. The relative tumor volume (RTV) was defined as [TVx/TV0], where TVx is the tumor volume in mm^3 at a given day x, and TV0 is the tumor volume in mm^3 at Day 0.
# The efficacy of the radionuclide therapy was expressed as the tumor growth delay (TGDx), which was calculated as the time required for the tumor volume to increase x-fold over the initial volume at Day 0. The tumor growth delay index [TGDIx=TGDx(T)/TGDx(C)] was calculated as the TGDx ratio of treated mice (T) over the TGDx average of control mice (C) for a 5-fold (x=5, TGD5) increase of the initial tumor volume. The median survival was calculated using GraphPad Prism software (version 7). Survival of mice was assessed using Kaplan-Meier curves to determine median survival of mice of each group using Graph Pad Prism software (version 7).
structure (smiles),measurement,setting,value
"CC(C)Cc1ccc(C(C)C(=O)NC(CCN)C(=O)NCCCCC(NC(=O)CN2CCN(CC(=O)O)CCN(CC(=O)O)CCN(CC(=O)O)CC2)C(=O)NCC2CCC(C(=O)NC(Cc3ccc4ccccc4c3)C(=O)NCCCCC(NC(=O)NC(CCC(=O)O)C(=O)O)C(=O)O)CC2)cc1 (stereo not shown) [^177Lu-Ibu-DAB-PSMA, metal not drawn]",Blood,[1]; 4 h p.i.,3.66 ± 0.45 % IA/g
same,Bone,[1]; 4 h p.i.,0.62 ± 0.08 % IA/g
same,Heart,[1]; 4 h p.i.,1.32 ± 0.10 % IA/g
same,Intestines,[1]; 4 h p.i.,0.71 ± 0.05 % IA/g
same,Kidneys,[1]; 4 h p.i.,19.4±1.84 % IA/g
same,Liver,[1]; 4 h p.i.,1.50 ± 0.12 % IA/g
same,Lung,[1]; 4 h p.i.,2.40 ± 0.31 % IA/g
same,Muscle,[1]; 4 h p.i.,0.54 ± 0.09 % IA/g
same,Salivary glands,[1]; 4 h p.i.,0.86 ± 0.38 % IA/g
same,Spleen,[1]; 4 h p.i.,1.14 ± 0.11 % IA/g
same,Stomach,[1]; 4 h p.i.,0.62 ± 0.12 % IA/g
same,Tumor-to-blood,[1]; 4 h p.i.,18.2 ± 2.69
same,Tumor-to-kidney,[1]; 4 h p.i.,3.01 ± 0.49
same,Tumor-to-liver,[1]; 4 h p.i.,44.6 ± 8.41
same,PC-3 flu Tumor,[1]; 4 h p.i.,1.19 ± 0.30 % IA/g
same,PC-3 PIP Tumor,[1]; 4 h p.i.,66.2 ± 11.0 % IA/g
same,Bone,[1]; 24 h p.i.,0.09 ± 0.02 % IA/g
same,Heart,[1]; 24 h p.i.,0.10 ± 0.01 % IA/g
same,Intestines,[1]; 24 h p.i.,0.11 ± 0.03 % IA/g
same,Kidneys,[1]; 24 h p.i.,6.00±0.68 % IA/g
same,Liver,[1]; 24 h p.i.,0.56 ± 0.10 % IA/g
same,Lung,[1]; 24 h p.i.,0.21 ± 0.03 % IA/g
same,Muscle,[1]; 24 h p.i.,0.05 ± 0.01 % IA/g
same,Salivary glands,[1]; 24 h p.i.,0.56 ± 0.37 % IA/g
same,Spleen,[1]; 24 h p.i.,0.32 ± 0.03 % IA/g
same,Stomach,[1]; 24 h p.i.,0.18 ± 0.13 % IA/g
same,Tumor-to-blood,[1]; 24 h p.i.,337 ± 40.4
same,Tumor-to-kidney,[1]; 24 h p.i.,8.88 ± 0.99
same,Tumor-to-liver,[1]; 24 h p.i.,98.3 ± 21.1
same,PC-3 flu Tumor,[1]; 24 h p.i.,0.17 ± 0.01 % IA/g
same,PC-3 PIP Tumor,[1]; 24 h p.i.,52.4 ± 2.35 % IA/g
same,whole-body retained activity,[2],18%
same,whole-body retention of radioactivity,[3],17%
same,first mouse of group euthanized,[4]; 2 MBq,26 days
same,median survival,[4]; 2 MBq,34 days
same,"TGDI5 (tumor growth delay index, 5-fold increase of tumor size)",[4]; 2 MBq,1.6 and 1.6 ± 0.4
same,average relative body weight at the time of euthanasia,[4]; 5 MBq per mouse,1.06±0.10
same,day on which the two mice with tumor regrowth reached the endpoint,[4]; 5 MBq per mouse,70 days and 82 days
same,mice of the group in which the tumors disappeared entirely,"[4]; 5 MBq per mouse, n=6",four
same,mice still alive at the end of the study at Day 84,"[4]; 5 MBq per mouse, n=6",four
same,first mouse of group euthanized,[4]; 5 MBq,70 days
same,"TGDI5 (tumor growth delay index, 5-fold increase of tumor size)",[4]; 5 MBq,not defined
same,median survival,"[4]; 5 MBq, study end Day 84",undefined
"CC(C)Cc1ccc(C(C)C(=O)NCCCCC(NC(=O)CN2CCN(CC(=O)O)CCN(CC(=O)O)CCN(CC(=O)O)CC2)C(=O)NCC2CCC(C(=O)NC(Cc3ccc4ccccc4c3)C(=O)NCCCCC(NC(=O)NC(CCC(=O)O)C(=O)O)C(=O)O)CC2)cc1 (stereo not shown) [^177Lu-Ibu-PSMA, metal not drawn]",Blood,[1]; 4 h p.i.,5.96 ± 1.53 % IA/g
same,Bone,[1]; 4 h p.i.,1.01 ± 0.18 % IA/g
same,Heart,[1]; 4 h p.i.,2.28 ± 0.68 % IA/g
same,Intestines,[1]; 4 h p.i.,1.00 ± 0.27 % IA/g
same,Kidneys,[1]; 4 h p.i.,32.5 ± 0.86 % IA/g
same,Liver,[1]; 4 h p.i.,2.77 ± 0.43 % IA/g
same,Lung,[1]; 4 h p.i.,3.72 ± 0.73 % IA/g
same,Muscle,[1]; 4 h p.i.,0.97 ± 0.37 % IA/g
same,Salivary glands,[1]; 4 h p.i.,1.66 ± 0.36 % IA/g
same,Spleen,[1]; 4 h p.i.,1.76 ± 0.23 % IA/g
same,Stomach,[1]; 4 h p.i.,0.79 ± 0.26 % IA/g
same,Tumor-to-blood,[1]; 4 h p.i.,14.1 ± 2.25
same,Tumor-to-kidney,[1]; 4 h p.i.,2.60 ± 0.08
same,Tumor-to-liver,[1]; 4 h p.i.,29.7 ± 3.11
same,PC-3 flu Tumor,[1]; 4 h p.i.,2.19 ± 0.52 % IA/g
same,PC-3 PIP Tumor,[1]; 4 h p.i.,81.3±6.28 % IA/g
same,Blood,[1]; 24 h p.i.,0.58 ± 0.09 % IA/g
same,Bone,[1]; 24 h p.i.,0.20 ± 0.04 % IA/g
same,Heart,[1]; 24 h p.i.,0.33 ± 0.06 % IA/g
same,Intestines,[1]; 24 h p.i.,0.23 ± 0.04 % IA/g
same,Kidneys,[1]; 24 h p.i.,16.5 ± 1.48 % IA/g
same,Liver,[1]; 24 h p.i.,0.91 ± 0.12 % IA/g
same,Lung,[1]; 24 h p.i.,0.62 ± 0.12 % IA/g
same,Muscle,[1]; 24 h p.i.,0.12 ± 0.04 % IA/g
same,Salivary glands,[1]; 24 h p.i.,0.34 ± 0.07 % IA/g
same,Spleen,[1]; 24 h p.i.,0.68 ± 0.15 % IA/g
same,Stomach,[1]; 24 h p.i.,0.23 ± 0.02 % IA/g
same,Tumor-to-blood,[1]; 24 h p.i.,149 ± 16.7
same,Tumor-to-kidney,[1]; 24 h p.i.,5.36 ± 0.73
same,Tumor-to-liver,[1]; 24 h p.i.,95.4 ± 10.6
same,PC-3 flu Tumor,[1]; 24 h p.i.,0.58 ± 0.19 % IA/g
same,PC-3 PIP Tumor,[1]; 24 h p.i.,86.8±18.0 % IA/g and 86.9 ± 18.0 % IA/g
same,whole-body retention of radioactivity,[3],33%
